Where two headings read alike, the source gives them in different places.

Results on four compounds are retold here after paper PMC7026418, “The kinase polypharmacology landscape of clinical PARP inhibitors” (Scientific Reports, 2020).

What all share (assay): biochemical
Holding throughout (parameters): DiscoveRx KINOMEscan active site-directed competition binding; percent of control kinase bound to immobilised ligand

The target of assay [1] is CDK8 (Homo sapiens, UniProt P49336).
The target of assay [2] is T1, DDR2 (Homo sapiens, UniProt Q16832).
T1 sequence (Q16832 1-855): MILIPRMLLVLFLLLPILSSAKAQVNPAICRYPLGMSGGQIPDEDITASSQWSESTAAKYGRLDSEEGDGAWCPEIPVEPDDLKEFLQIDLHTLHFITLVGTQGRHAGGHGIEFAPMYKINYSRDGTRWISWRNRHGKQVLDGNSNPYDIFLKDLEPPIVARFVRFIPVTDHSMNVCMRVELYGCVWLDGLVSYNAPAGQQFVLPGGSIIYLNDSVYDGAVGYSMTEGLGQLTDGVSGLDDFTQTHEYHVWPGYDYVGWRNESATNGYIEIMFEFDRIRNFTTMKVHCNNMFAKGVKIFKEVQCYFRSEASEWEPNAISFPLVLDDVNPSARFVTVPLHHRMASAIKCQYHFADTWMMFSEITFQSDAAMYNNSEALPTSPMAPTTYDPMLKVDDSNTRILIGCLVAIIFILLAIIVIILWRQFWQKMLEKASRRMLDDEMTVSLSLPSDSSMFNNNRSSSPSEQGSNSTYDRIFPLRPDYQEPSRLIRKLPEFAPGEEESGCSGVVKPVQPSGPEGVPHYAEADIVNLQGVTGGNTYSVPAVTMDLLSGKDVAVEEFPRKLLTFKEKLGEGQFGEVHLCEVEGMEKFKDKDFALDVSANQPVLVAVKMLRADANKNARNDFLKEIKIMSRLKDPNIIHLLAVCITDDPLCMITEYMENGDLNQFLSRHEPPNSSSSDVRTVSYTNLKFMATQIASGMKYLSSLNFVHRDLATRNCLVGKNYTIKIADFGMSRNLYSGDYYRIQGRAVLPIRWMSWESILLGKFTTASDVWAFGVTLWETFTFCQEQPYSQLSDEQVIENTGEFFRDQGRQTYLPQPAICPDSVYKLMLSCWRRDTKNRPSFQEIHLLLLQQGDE

The target of assay [3] is ERBB2 (Homo sapiens, UniProt P04626).
Sequence of ERBB2 (P04626 whole entry): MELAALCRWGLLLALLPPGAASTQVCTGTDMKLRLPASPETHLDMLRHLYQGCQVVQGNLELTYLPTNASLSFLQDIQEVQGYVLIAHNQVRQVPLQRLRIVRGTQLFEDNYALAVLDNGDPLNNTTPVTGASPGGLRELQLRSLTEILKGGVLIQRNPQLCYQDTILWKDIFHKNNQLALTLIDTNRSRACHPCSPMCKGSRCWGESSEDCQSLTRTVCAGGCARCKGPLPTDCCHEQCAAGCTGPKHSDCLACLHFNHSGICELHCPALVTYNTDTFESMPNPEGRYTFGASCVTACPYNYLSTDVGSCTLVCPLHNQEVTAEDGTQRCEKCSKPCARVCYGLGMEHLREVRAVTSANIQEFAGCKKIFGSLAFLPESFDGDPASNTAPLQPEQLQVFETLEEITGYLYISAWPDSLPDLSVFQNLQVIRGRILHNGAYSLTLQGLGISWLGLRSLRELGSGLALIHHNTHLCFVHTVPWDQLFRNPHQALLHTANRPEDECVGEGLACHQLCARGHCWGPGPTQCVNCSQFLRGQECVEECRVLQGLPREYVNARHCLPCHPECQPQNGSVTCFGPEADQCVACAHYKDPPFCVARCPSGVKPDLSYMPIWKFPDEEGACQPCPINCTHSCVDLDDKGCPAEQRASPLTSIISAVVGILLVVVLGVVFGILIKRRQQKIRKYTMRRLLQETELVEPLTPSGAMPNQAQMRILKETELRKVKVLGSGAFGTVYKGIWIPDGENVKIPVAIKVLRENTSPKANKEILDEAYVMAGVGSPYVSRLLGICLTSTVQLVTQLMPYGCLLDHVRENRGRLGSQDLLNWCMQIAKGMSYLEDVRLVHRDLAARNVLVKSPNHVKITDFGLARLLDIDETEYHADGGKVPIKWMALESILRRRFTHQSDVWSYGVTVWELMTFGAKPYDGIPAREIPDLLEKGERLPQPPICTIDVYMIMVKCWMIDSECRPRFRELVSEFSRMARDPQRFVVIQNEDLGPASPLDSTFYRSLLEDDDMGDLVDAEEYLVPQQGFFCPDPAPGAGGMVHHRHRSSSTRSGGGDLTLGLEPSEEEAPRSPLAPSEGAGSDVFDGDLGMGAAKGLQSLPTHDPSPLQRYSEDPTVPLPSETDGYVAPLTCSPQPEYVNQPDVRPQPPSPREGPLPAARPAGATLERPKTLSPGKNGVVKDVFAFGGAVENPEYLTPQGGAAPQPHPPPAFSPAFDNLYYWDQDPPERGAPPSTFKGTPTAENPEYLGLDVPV
Assay [4] concerns the target T2, MAP3K15 (Homo sapiens, UniProt Q6ZN16).
T2 sequence (Q6ZN16 1-1313): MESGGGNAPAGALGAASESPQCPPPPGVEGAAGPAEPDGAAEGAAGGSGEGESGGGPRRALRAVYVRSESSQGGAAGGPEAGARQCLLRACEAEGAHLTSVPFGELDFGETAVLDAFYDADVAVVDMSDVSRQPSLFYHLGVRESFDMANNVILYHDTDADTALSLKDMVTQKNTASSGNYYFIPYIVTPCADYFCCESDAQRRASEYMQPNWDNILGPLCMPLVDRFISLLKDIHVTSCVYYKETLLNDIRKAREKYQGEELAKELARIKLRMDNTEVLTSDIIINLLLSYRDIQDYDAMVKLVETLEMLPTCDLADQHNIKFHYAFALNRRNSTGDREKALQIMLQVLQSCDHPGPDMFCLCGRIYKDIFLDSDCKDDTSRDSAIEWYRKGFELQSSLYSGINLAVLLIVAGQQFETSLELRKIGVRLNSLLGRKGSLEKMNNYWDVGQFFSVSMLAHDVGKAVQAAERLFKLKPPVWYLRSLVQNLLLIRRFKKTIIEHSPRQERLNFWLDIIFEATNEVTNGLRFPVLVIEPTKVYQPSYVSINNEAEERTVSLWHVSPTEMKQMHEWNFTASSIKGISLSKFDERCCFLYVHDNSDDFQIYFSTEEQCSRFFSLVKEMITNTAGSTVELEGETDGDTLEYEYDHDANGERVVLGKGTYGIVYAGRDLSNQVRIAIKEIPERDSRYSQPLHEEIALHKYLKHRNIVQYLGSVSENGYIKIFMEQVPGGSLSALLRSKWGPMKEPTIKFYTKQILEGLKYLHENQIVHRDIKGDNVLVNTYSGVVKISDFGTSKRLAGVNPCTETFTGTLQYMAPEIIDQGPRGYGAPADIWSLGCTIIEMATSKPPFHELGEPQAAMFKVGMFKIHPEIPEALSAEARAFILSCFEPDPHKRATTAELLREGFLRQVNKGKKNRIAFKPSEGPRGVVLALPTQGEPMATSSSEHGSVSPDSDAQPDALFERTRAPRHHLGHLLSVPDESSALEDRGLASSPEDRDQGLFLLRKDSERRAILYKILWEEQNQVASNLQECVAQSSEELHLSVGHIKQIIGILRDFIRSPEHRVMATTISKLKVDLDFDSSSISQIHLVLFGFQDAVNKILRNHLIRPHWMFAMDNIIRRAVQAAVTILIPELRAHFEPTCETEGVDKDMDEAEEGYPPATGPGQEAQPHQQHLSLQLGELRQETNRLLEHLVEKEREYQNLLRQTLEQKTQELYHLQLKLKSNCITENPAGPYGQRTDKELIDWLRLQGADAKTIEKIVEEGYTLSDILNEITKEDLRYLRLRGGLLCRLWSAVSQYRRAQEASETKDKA

The target in assay [5] is MAST1 (Homo sapiens, UniProt Q9Y2H9).
Sequence of MAST1 (Q9Y2H9 whole entry): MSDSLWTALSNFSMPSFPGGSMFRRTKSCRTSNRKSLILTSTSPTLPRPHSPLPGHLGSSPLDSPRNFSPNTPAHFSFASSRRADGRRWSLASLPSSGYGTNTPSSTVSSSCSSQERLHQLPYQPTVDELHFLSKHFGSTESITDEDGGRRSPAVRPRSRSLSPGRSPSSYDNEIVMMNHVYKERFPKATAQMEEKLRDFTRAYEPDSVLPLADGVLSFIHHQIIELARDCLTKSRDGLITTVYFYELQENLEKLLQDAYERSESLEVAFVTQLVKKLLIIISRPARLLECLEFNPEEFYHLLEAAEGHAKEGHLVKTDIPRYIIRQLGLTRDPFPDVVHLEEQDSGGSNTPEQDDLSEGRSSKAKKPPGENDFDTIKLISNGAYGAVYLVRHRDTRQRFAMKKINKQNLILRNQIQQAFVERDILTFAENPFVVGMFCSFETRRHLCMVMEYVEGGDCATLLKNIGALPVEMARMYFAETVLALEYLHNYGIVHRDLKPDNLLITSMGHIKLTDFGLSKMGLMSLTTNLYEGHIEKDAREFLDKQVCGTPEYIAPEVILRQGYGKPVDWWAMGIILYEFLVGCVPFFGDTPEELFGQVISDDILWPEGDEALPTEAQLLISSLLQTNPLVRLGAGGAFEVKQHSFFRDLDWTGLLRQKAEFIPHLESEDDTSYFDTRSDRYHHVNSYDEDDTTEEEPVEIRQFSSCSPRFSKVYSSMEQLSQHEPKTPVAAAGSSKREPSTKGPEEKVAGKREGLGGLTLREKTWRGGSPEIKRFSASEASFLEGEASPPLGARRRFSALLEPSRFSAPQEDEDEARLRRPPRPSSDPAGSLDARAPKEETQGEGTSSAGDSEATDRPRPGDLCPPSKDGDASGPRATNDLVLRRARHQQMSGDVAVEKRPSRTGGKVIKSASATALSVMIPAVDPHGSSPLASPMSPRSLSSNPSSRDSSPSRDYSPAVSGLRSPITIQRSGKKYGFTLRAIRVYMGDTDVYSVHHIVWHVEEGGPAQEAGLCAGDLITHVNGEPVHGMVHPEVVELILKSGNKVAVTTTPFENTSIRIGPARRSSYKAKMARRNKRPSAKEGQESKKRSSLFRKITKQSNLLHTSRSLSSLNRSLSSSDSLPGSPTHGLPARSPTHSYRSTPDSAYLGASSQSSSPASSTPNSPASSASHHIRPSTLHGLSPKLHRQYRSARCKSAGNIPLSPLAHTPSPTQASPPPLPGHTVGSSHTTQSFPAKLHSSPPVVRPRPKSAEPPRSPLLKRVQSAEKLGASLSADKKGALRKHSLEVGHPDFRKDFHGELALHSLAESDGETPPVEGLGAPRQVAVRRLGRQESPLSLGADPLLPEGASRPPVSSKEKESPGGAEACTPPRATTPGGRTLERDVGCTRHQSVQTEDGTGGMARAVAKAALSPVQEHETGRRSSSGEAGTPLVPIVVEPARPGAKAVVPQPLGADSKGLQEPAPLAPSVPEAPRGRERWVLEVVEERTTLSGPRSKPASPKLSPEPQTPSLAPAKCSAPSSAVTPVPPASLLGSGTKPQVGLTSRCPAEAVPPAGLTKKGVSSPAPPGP
The target of assay [6] is T3, p38-gamma (Homo sapiens, UniProt P53778).
T3 construct: gene MAPK12
T3 sequence (P53778 1-367): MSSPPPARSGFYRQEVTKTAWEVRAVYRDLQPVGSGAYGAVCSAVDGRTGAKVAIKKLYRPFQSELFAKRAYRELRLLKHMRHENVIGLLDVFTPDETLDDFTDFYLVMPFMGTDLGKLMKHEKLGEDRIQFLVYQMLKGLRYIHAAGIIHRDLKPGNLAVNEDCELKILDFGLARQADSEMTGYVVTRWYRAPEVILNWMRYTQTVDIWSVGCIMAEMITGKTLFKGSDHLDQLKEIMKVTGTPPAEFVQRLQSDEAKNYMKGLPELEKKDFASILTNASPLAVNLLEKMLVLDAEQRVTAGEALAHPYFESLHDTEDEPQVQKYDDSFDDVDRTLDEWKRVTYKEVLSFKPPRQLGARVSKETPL

The mark [7] stands for this setting: read-out: Niraparib (MK-4827) / %Ctrl @ 10000nM.
The mark [8] stands for this setting: read-out: Olaparib / %Ctrl @ 10000nM.
Setting [9] is: read-out: Rucaparib / %Ctrl @ 10000nM, binding competition, % of control.
Setting [10] is: read-out: Talazoparib (BMN 673) / %Ctrl @ 10000nM.

Sequence of CDK8 (P49336 whole entry): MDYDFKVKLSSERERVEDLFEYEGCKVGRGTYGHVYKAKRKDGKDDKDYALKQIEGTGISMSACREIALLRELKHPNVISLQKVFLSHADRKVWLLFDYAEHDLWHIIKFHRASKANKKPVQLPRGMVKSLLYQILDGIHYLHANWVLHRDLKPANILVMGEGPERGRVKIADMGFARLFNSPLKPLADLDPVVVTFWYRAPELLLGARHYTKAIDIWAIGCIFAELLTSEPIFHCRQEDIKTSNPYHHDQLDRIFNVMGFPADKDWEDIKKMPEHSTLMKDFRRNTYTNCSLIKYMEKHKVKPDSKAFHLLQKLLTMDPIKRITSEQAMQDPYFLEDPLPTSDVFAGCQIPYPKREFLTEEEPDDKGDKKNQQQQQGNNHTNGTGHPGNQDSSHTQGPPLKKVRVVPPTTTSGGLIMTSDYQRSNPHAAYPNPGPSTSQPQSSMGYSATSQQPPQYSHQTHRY

As to `NC(=O)c1cccc2cn(-c3ccc([C@@H]4CCCNC4)cc3)nc12` [Niraparib], the percent of control binding at 10 µM in assay [1] (setting [7]) was 68%; in assay [2] (setting [7]), 90%; in assay [3] (setting [7]), 82%; in assay [4] (setting [7]) it was 64%; in assay [5] (setting [7]), 91%; in assay [6] (setting [7]), 48%.
With `O=C(c1cc(Cc2n[nH]c(=O)c3ccccc23)ccc1F)N1CCN(C(=O)C2CC2)CC1` [Olaparib], the percent of control binding at 10 µM in assay [1] (setting [8]) is 100%; in assay [2] (setting [8]), 92%; in assay [3] (setting [8]) it was 100%; in assay [4] (setting [8]), 100%; in assay [5] (setting [8]), 86%; in assay [6] (setting [8]) it was 83%.
`CNCc1ccc(-c2[nH]c3cc(F)cc4c3c2CCNC4=O)cc1` [Rucaparib]: the percent of control binding at 10 µM in assay [1] (setting [9]) was determined as 86%; in assay [2] (setting [9]), 89%; in assay [3] (setting [9]) it was 100%; in assay [4] (setting [9]), 73%; in assay [5] (setting [9]), 79%; in assay [6] (setting [9]), 58%.
On to `Cn1ncnc1[C@H]1c2n[nH]c(=O)c3cc(F)cc(c23)N[C@@H]1c1ccc(F)cc1` [Talazoparib], for which the percent of control binding at 10 µM in assay [1] (setting [10]) was determined as 99%; in assay [2] (setting [10]), 100%; in assay [3] (setting [10]) it was 98%; in assay [4] (setting [10]), 100%; in assay [5] (setting [10]), 100%; in assay [6] (setting [10]), 60%.
